# Laboratory results taken from ChEMBL document CHEMBL4334517, “Flavipesines A and B and Asperchalasines E-H: Cytochalasans and Merocytochalasans from Aspergillus flavipes” (J Nat Prod, 2019).
# Molecular target: Isocitrate dehydrogenase [NADP] cytoplasmic (Homo sapiens, UniProt O75874, R132H)
# Assay: Inhibition of IDH1 R132H mutant (unknown origin) assessed as reduction in NADPH consumption using alpha-KG as substrate incubated for 5 mins followed by substrate addition and measured every 1 min
# Chain of Isocitrate dehydrogenase [NADP] cytoplasmic (O75874 2-414 R132H limits assumed): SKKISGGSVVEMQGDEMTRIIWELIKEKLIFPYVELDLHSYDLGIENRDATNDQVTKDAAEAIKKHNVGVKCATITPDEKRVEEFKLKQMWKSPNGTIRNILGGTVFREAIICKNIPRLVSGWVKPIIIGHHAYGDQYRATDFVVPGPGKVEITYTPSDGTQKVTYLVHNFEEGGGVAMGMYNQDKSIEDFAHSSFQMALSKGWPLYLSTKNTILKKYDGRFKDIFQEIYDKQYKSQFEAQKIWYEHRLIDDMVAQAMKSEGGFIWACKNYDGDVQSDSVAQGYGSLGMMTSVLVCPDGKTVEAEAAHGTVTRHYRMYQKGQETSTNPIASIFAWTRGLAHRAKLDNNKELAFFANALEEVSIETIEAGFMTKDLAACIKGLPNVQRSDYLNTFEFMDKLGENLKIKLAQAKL
row,SMILES,IC50 [µM]
1,COc1c(O)c(C)c2c(c1O)[C@@H]1O[C@H]2[C@H]2C(=O)[C@H](O)CC/C(C)=C/[C@H]3C=C(C)[C@@H](C)[C@H]4[C@H](CC(C)C)NC(=O)[C@]43C(=O)[C@@H]21,17.3
2,CC1=C[C@@H]2/C=C(\C)CC[C@@H](O)C(=O)[C@H]3[C@H](C(=O)[C@]24C(=O)N[C@@H](CC(C)C)[C@@H]4[C@@H]1C)[C@H]1O[C@@H]3c2c(O)c(O)c(O)c(C)c21,> 50
3,COc1c(O)c(C)c2c(c1O)[C@H]1O[C@@H]2[C@H]2C(=O)[C@@]34C(=O)N[C@@H](CC(C)C)[C@@H]3[C@H](C)C(C)=C[C@@H]4/C=C(\C)CC[C@@H](O)C(=O)[C@@H]21,13.3
4,CC(C)C[C@@H]1NC(=O)[C@]23[C@H]1[C@H](C)C(CO)=C[C@@H]2[C@@H]1[C@@]2(CCC[C@@]1(C)O)CC[C@]3(O)O2,> 50
5,CC1=C[C@@H]2/C=C(\C)CC[C@@H](O)C(=O)[C@H]3[C@H](C(=O)[C@]24C(=O)N[C@@H](CC(C)C)[C@@H]4[C@@H]1C)[C@@H]1O[C@H]3c2c(O)c(O)c(O)c(C)c21,> 50
6,COc1c(O)c(C)c2c(c1O)[C@H]1O[C@@H]2[C@H]2C(=O)[C@H](O)CC/C(C)=C/[C@H]3C=C(C)[C@@H](C)[C@H]4[C@H](CC(C)C)NC(=O)[C@]43C(=O)[C@@H]21,11.7
7,Cc1ccccc1C(C(=O)NC1CCCCC1)N(C(=O)Cn1ccnc1C)c1cccc(F)c1 (stereo not given),0.2
8,COc1c(O)c(C)c2c(c1O)[C@@H]1O[C@H]2[C@H]2C(=O)[C@@]34C(=O)N[C@@H](CC(C)C)[C@@H]3[C@H](C)C(C)=C[C@@H]4/C=C(\C)CC[C@@H](O)C(=O)[C@@H]21,43.6
9,C=C1CC[C@@H](O)[C@]23CC[C@](O)(O2)[C@@]24C(=O)N[C@@H](CC(C)C)[C@@H]2[C@H](C)C(C)=C[C@@H]4[C@@H]13,> 50
10,CC1=C[C@@H]2/C=C(\C)CC[C@@H](O)C(=O)[C@H]3[C@H](C(=O)[C@]24C(=O)N[C@@H](CC(C)C)[C@@H]4[C@@H]1C)[C@@H]1O[C@H]3c2c(C)c(O)c(O)c(O)c21,> 50
